We go through five molecules from ChEMBL document CHEMBL3400064, “Synthesis and biological evaluation of 2-arylbenzimidazoles targeting Leishmania donovani” (Bioorg Med Chem Lett, 2015).

Molecules are shown by their SMILES.

Series [1] has as its system Leishmania donovani. Description: Antileishmanial activity against Leishmania donovani MHOM/SD/1962/1S-Cl2d infected THP1 cells assessed as inhibition of intracellular […] amastigote at 5 uM after 48 hrs at 50 uM by Bright-Glo luciferase assay. The series is classed as functional, THP-1.
Series [2] has as its system Leishmania donovani. Briefly: Antileishmanial activity against Leishmania donovani MHOM/SD/1962/1S-Cl2d infected THP1 cells assessed as inhibition of intracellular […] amastigote after 48 hrs at 50 uM by Bright-Glo luciferase assay. The series is classed as functional, organism-based. The conditions noted are these: THP-1, 48 h.
Series [3] in a line: Cytotoxicity against mouse NIH/3T3 cells assessed as viability at 15 uM after 48 hrs by alamarBlue assay. It is filed as cell-based, NIH3T3. The conditions noted are these: read-out: Activity. On the technique in general: The colour change of resazurin is a common sign of viable cells or microbes.
In series [4] the test system is Leishmania donovani. Briefly: Antileishmanial activity against axenic amastigote Leishmania donovani MHOM/SD/1962/1S-Cl2d assessed as inhibition of parasite growth after 24 hrs at 50 uM by alamarBlue assay. It is filed as functional.
A short description of series [5]: Cytotoxicity against mouse NIH/3T3 cells assessed as viability after 48 hrs by alamarBlue assay. It is filed as cell-based. The conditions noted are these: NIH3T3, 48 h.
The test system of series [6] is Leishmania donovani. Briefly: Antileishmanial activity against axenic amastigote Leishmania donovani MHOM/SD/1962/1S-Cl2d assessed as inhibition of parasite growth after 24 hrs at 15 uM by alamarBlue assay. It is filed as functional.
The subject of series [7] is Leishmania donovani. Description: Antileishmanial activity against axenic amastigote Leishmania donovani MHOM/SD/1962/1S-Cl2d assessed as inhibition of parasite growth after 24 hrs at 5 uM by alamarBlue assay. It is filed as functional.

`O=C(Nc1cccc(-c2nc3ccccc3[nH]2)c1)c1ccc(F)cc1`: the “inhibition (INH)” value in series [1] is recorded as 16%. Further, the IC50 (commonly the concentration needed to halve the response being measured) is 23.4 µM in series [2] and 15.4 µM in series [5]. Also, the viability at 48 h, 15 µM in series [3] was -11.9%. In addition, the inhibition (usually the relative decrease from the control value, in per cent) at 50 µM in series [4] was 69%. In series [6], the inhibition at 15 µM came to 50%. Also, the inhibition at 5 µM in series [7] was 32%.
`Cn1c(-c2cccc(NC(=O)c3cccs3)c2)nc2ccccc21`: the “inhibition (INH)” value in series [1] was found to be 27.7%. For the same molecule, the half-inhibitory concentration (IC50) in series [2] was determined as 22.1 µM; in series [5] it was 61.3 µM. The viability at 48 h, 15 µM in series [3] was -12.9%. For the same molecule, the inhibition at 50 µM in series [4] amounted to 74%. Besides, in series [6], the inhibition at 15 µM was 56%. In addition, in series [7], the inhibition at 5 µM was determined as 30%.
As for `Cc1cccc2[nH]c(-c3cccc(NC(=O)c4cccs4)c3)nc12`, the “inhibition (INH)” value in series [1] was found to be 46.4%. Further, the IC50 is 17.8 µM in series [2] and above 300 µM in series [5]. Moreover, in series [3], the viability at 48 h, 15 µM turned out to be 5.3%. Also, the inhibition at 50 µM in series [4] came to 83%. Besides, the inhibition at 15 µM in series [6] was 56%. The inhibition at 5 µM in series [7] worked out at 32%.
On to `O=C(Nc1cccc(-c2nc3ccccc3[nH]2)c1)c1cccs1`, for which the “inhibition (INH)” value in series [1] is 21.7%. The IC50 in series [2] is 25.1 µM; in series [5], 15 µM. The viability at 48 h, 15 µM in series [3] was -0.6%. Moreover, in series [4], the inhibition at 50 µM was 66%. For the same molecule, the inhibition at 15 µM in series [6] worked out at 48%. The inhibition at 5 µM in series [7] amounted to 39%.
Turning to `O=C(Nc1ccccc1-c1nc2ccccc2[nH]1)NC1CCCCC1`, in series [1], the “inhibition (INH)” value was found to be 22.2%. Further, the IC50 was 7.6 µM in series [2] and 42.2 µM in series [5]. The viability at 48 h, 15 µM in series [3] is -4.4%. In addition, the inhibition at 50 µM in series [4] was 88%. In addition, the inhibition at 15 µM in series [6] came out at 65%. Besides, in series [7], the inhibition at 5 µM turned out to be 36%.
